Measured values: patent publication US20130143256A1, “LIQUID-BASED METHOD FOR PRODUCING PLANT EMBRYOS” (ArborGen Inc., priority 2006, published 2013)

Columns and labels:
Format in all cases: cell-based, loblolly pine
cell line I = test: Effect of maltose on embryo production in liquid EDM, cell line I; details: for Total Avg. Potential Embryos: 30 ml
Experimental: (§1) Suspension cultures of the following four loblolly pine genotypes, I, B, M, and N, were tested. Each cell line or genotype was initiated from an individual immature seed explant derived from a control pollinated cross of select parent trees of loblolly pine. Five variations in the Liquid EDM listed in Table 1 were tested for development of loblolly pine somatic embryos in liquid. The five treatments were coded 1, 2, 3, 4 and 5 according to the concentration of maltose in the liquid medium, 0, 10, 20, 40 and 60 g/l, respectively. The proliferating embryogenic suspension cultures were poured in the side arm of the flask for 30 minutes to measure the settled cell volume (SCV) as described in example 2. A sub-sample of 12 ml of proliferating liquid suspension was removed for baseline development plating on five plates of MSG gelled embryo development medium for comparative purposes. The SCV measurement was recorded and the proliferating liquid suspensions were distributed among the treatments listed above. Each treatment flask was initiated by placing 15 milliliters of 100% SCV onto a raft placed on a Buchner funnel and the excess liquid was removed through gentle vacuum aspiration. The tissues were then re-suspended into a 250 ml sidearm flask with 30 milliliters of Liquid Embryo Development Media with various maltose concentrations (from 0 to 60 g/l). Once the cultures were re-suspended in liquid EDM the suspensions were poured in the sidearm to settle in the sidearm for thirty minutes to measure the SCV. Each treatment had three replicate flasks. The SCV measurements were recorded and the flasks were placed on the shaker in the dark, 24° C. growth chamber and monitored on a weekly basis for five weeks as described below. the liquid embryo development suspensions were poured into the sidearm and allowed to settle in the sidearm for 30 minutes and the SCV measured and recorded. Each flask was sub-cultured as needed by adding liquid EDM to maintain the suspension density at 50%. This sequence of events was repeated at week two and week three. no media manipulation. The cultures were observed and placed back on the shaker. At week five the embryos were harvested as described in example 6 with the exception of using a 560 μm mesh to wash embryos. Half of the embryos were conditioned as described in example 6 and half were conditioned by the method described in U.S. Application Ser. No. 60/675, 949 simply for comparative purposes.

cell line B = test: Effect of maltose on embryo production in liquid EDM, cell line B; details: for Total Avg. Potential Embryos: 30 ml
Experimental: as §1

cell line M = test: Effect of maltose on embryo production in liquid EDM, cell line M; details: highest (60 g/L) concentration of maltose
Experimental: (§2) Suspension cultures of the following four loblolly pine genotypes, I, B, M, and N, were tested. Each cell line or genotype was initiated from an individual immature seed explant derived from a control pollinated cross of select parent trees of loblolly pine. Five variations in the Liquid EDM listed in Table 1 were tested for development of loblolly pine somatic embryos in liquid. The five treatments were coded 1, 2, 3, 4 and 5 according to the concentration of maltose in the liquid medium, 0, 10, 20, 40 and 60 g/l, respectively. The proliferating embryogenic suspension cultures were poured in the side arm of the flask for 30 minutes to measure the settled cell volume (SCV) as described in example 2. A sub-sample of 12 ml of proliferating liquid suspension was removed for baseline development plating on five plates of MSG gelled embryo development medium for comparative purposes. The SCV measurement was recorded and the proliferating liquid suspensions were distributed among the treatments listed above. […] The SCV measurements were recorded and the flasks were placed on the shaker in the dark, 24° C. growth chamber and monitored on a weekly basis for five weeks as described below. the liquid embryo development suspensions were poured into the sidearm and allowed to settle in the sidearm for 30 minutes and the SCV measured and recorded. […]

cell line N = test: Effect of maltose on embryo production in liquid EDM, cell line N; details: maltose 0 to 60 g/l
Experimental: as §2

[1] = test system: pine somatic embryos, genotype B; test: Germination of embryos developed at varying maltose concentration, genotype B
Experimental: (§3) In this particular experiment, after the 3 week conditioning treatment, the embryos on the membrane were placed on modMS germination medium in a lighted culture room at 24° C. After 3 to 5 days the embryos were individually removed from the membrane and transferred directly to the surface of modMS germination medium and cultured for an additional 2 weeks in a lighted growth room at 24° C. Embryo germination, which in this particular instance was estimated by identifying the emergence of a root from the embryo that was at least 1 cm long during this 2 week time period. Twenty-nine percent of the embryos harvested from liquid EDM germinated. Embryos were harvested and prepared for germination using two conditioning treatments: (1) exposure to high relative humidity for 3 weeks at 24° C. […] Embryos were then germinated as previously described in Example 5.

[2] = test system: pine somatic embryos, genotype I; test: Germination of embryos developed at varying maltose concentration, genotype I
Experimental: as §3

[3] = cell line I, maltose 10 g/l, week 5
[4] = cell line I, maltose 20 g/l, week 5
[5] = cell line I, maltose 40 g/l, week 5
[6] = cell line I, maltose 60 g/l, week 5
[7] = cell line B, maltose 10 g/l, week 5
[8] = cell line B, maltose 20 g/l, week 5
[9] = cell line B, maltose 40 g/l, week 5
[10] = cell line B, maltose 60 g/l, week 5
[11] = Cond 1: 3 wk HRH, maltose conc. 1%
[12] = Cond 1: 3 wk HRH, maltose conc. 2%
[13] = Cond 1: 3 wk HRH, maltose conc. 4%
[14] = Cond 1: 3 wk HRH, maltose conc. 6%
[15] = Cond 2: 4 wk cold & 3 wk HRH, maltose conc. 1%
[16] = Cond 2: 4 wk cold & 3 wk HRH, maltose conc. 2%
[17] = Cond 2: 4 wk cold & 3 wk HRH, maltose conc. 4%
[18] = Cond 2: 4 wk cold & 3 wk HRH, maltose conc. 6%

Q: For `OC[C@H]1O[C@H](O[C@H]2[C@H](O)[C@@H](O)C(O)O[C@@H]2CO)[C@H](O)[C@@H](O)[C@@H]1O` (mixture of isomers) [maltose], which “production of fully developed embryos” value (cell line I; cell line I, all liquid EDM treatments that contained maltose (10 to 60 g/l)) is on record?
A: Fully developed embryos were produced

Q: What about the “Avg. Embryos” value (cell line I; cell line I, maltose 10 g/l) of the same compound?
A: 206 per g tissue

Q: What about the “Total Avg. Potential Embryos” value (cell line I; cell line I, maltose 10 g/l) of the same compound?
A: 464 per flask

Q: And the “Avg. Embryos” value (cell line I; [3])?
A: 16 per ml

Q: And the “Avg. ± st. dev. Embryos harvested” value (cell line I; [3])?
A: 232 ± 14 per 15 ml

Q: And the “Avg. Embryos” value (cell line I; cell line I, maltose 20 g/l)?
A: 216 per g tissue

Q: What about the “Total Avg. Potential Embryos” value (cell line I; cell line I, maltose 20 g/l) of the same compound?
A: 486 per flask

Q: And the “Avg. Embryos” value (cell line I; [4])?
A: 14 per ml

Q: And the “Avg. ± st. dev. Embryos harvested” value (cell line I; [4])?
A: 243 ± 60 per 15 ml

Q: What about the “Avg. Embryos” value (cell line I; cell line I, maltose 40 g/l) of the same compound?
A: 237 per g tissue

Q: And the “Total Avg. Potential Embryos” value (cell line I; cell line I, maltose 40 g/l)?
A: 526 per flask

Q: What about the “Avg. Embryos” value (cell line I; [5]) of the same compound?
A: 16 per ml

Q: What about the “Avg. ± st. dev. Embryos harvested” value (cell line I; [5]) of the same compound?
A: 263 ± 22 per 15 ml

Q: And the “Avg. Embryos” value (cell line I; cell line I, maltose 60 g/l)?
A: 290 per g tissue

Q: What about the “Total Avg. Potential Embryos” value (cell line I; cell line I, maltose 60 g/l) of the same compound?
A: 702 per flask

Q: And the “Avg. Embryos” value (cell line I; [6])?
A: 20 per ml

Q: What about the “Avg. ± st. dev. Embryos harvested” value (cell line I; [6]) of the same compound?
A: 351 ± 66 per 15 ml

Q: What about the “average number of embryos produced per total volume of medium used (discarded and saved)” value (cell line I; line I, 40 g/l maltose, 70 ml medium) of the same compound?
A: 7.5 embryos per total ml media used

Q: What about the “average number of embryos produced per ml of total media used” value (cell line I; line I, across maltose levels from 10 to 60 g/l) of the same compound?
A: 8.3 per ml

Q: What about the “production of fully developed embryos” value (cell line B; cell line B, all liquid EDM treatments that contained maltose (10 to 60 g/l)) of the same compound?
A: Fully developed embryos were produced

Q: What about the “Avg. Embryos” value (cell line B; cell line B, maltose 10 g/l) of the same compound?
A: 189 per g tissue

Q: What about the “Total Avg. Potential Embryos” value (cell line B; cell line B, maltose 10 g/l) of the same compound?
A: 464 per flask

Q: And the “Avg. Embryos” value (cell line B; [7])?
A: 17 per ml

Q: What about the “Avg. ± st. dev. Embryos harvested” value (cell line B; [7]) of the same compound?
A: 232 ± 84 per 15 ml

Q: And the “Avg. Embryos” value (cell line B; cell line B, maltose 20 g/l)?
A: 218 per g tissue

Q: What about the “Total Avg. Potential Embryos” value (cell line B; cell line B, maltose 20 g/l) of the same compound?
A: 526 per flask

Q: What about the “Avg. Embryos” value (cell line B; [8]) of the same compound?
A: 18 per ml

Q: What about the “Avg. ± st. dev. Embryos harvested” value (cell line B; [8]) of the same compound?
A: 263 ± 76 per 15 ml

Q: What about the “Avg. Embryos” value (cell line B; cell line B, maltose 40 g/l) of the same compound?
A: 165 per g tissue

Q: And the “Total Avg. Potential Embryos” value (cell line B; cell line B, maltose 40 g/l)?
A: 422 per flask

Q: And the “Avg. Embryos” value (cell line B; [9])?
A: 15 per ml

Q: And the “Avg. ± st. dev. Embryos harvested” value (cell line B; [9])?
A: 211 ± 281 per 15 ml

Q: What about the “Avg. Embryos” value (cell line B; cell line B, maltose 60 g/l) of the same compound?
A: 89 per g tissue

Q: What about the “Total Avg. Potential Embryos” value (cell line B; cell line B, maltose 60 g/l) of the same compound?
A: 240 per flask

Q: What about the “Avg. Embryos” value (cell line B; [10]) of the same compound?
A: 8 per ml

Q: And the “Avg. ± st. dev. Embryos harvested” value (cell line B; [10])?
A: 120 ± 20 per 15 ml

Q: And the “average number of embryos produced per ml of total media used” value (cell line B; line B, across maltose levels from 10 to 60 g/l)?
A: 5.6 per ml

Q: What about the “response to increasing maltose” value (cell line M) of the same compound?
A: producing embryos that had not fully development

Q: And the “response to maltose treatments” value (cell line N)?
A: did not respond

Q: And the Germination [1, 11]?
A: 9%

Q: What about the Germination [1, 12] of the same compound?
A: 8%

Q: And the Germination [1, 13]?
A: 8%

Q: And the Germination [1, 14]?
A: 41%

Q: And the Germination [1, 15]?
A: 5%

Q: And the Germination [1, 16]?
A: 3%

Q: What about the Germination [1, 17] of the same compound?
A: 24%

Q: What about the Germination [1, 18] of the same compound?
A: 29%

Q: And the Germination [2, 11]?
A: 37%

Q: What about the Germination [2, 12] of the same compound?
A: 40%

Q: And the Germination [2, 13]?
A: 33%

Q: And the Germination [2, 14]?
A: 19%

Q: What about the Germination [2, 15] of the same compound?
A: 21%

Q: And the Germination [2, 16]?
A: 55%

Q: What about the Germination [2, 17] of the same compound?
A: 48%

Q: And the Germination [2, 18]?
A: 27%
